Results published in patent publication US6051406A, “Keratan sulfate 6-sulfotransferase and DNA coding for the same” (Seikagaku Kogyo Kabushiki Kaish, priority 1996, dated 2000).

Key:
[1] = target: T1, partially purified KSST (KSGal6ST) (Homo sapiens, UniProt O43916); assay: Effect of added salts and dithiothreitol on KSST activity (Reaction Mixture II); assay type: biochemical; design: made in house; host or cells: COS-7 cells transfected with pCXNKSST (pCXN2 vector); extract partially purified over DEAE-Sephadex A-50 (non-adsorbed fraction) and Heparin-Sepharose CL-6B; conditions: for Sulfotransferase activity with added salt: salt at final concentration of 5 mM instead of CaCl2, keratan sulfate receptor, Reaction Mixture II
T1 sequence (O43916 1-411): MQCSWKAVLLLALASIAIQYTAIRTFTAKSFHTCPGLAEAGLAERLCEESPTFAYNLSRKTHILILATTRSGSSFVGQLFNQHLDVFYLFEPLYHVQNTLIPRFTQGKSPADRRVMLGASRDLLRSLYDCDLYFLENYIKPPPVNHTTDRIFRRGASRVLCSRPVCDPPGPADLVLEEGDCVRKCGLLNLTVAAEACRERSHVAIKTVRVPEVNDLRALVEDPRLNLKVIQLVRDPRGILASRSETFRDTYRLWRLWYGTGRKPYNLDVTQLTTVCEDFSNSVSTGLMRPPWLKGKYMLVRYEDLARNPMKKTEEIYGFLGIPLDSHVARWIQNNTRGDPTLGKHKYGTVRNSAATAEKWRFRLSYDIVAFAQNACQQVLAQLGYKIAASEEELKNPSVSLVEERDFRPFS
Description: (§5) Characterization of the KSST partially purified as described above was performed.

[2] = target: T1, partially purified KSST (KSGal6ST); conditions: read-out: Km value for PAPS (sulfate group donor)
Description: as §5

[3] = target: T1, partially purified KSST (KSGal6ST); assay: Sulfotransferase activity for various glycosaminoglycan receptors, partially purified KSST (Reaction Mixture II); assay type: biochemical; design: made in house; host or cells: COS-7 cells transfected with pCXNKSST (pCXN2 vector); extract partially purified over DEAE-Sephadex A-50 (non-adsorbed fraction) and Heparin-Sepharose CL-6B; conditions: for Sulfotransferase activity, Partially purified product: 25 nmol glycosaminoglycan as receptor, Reaction Mixture II, after Heparin-Sepharose CL-6B; for sulfotransferase activity for this receptor relative to keratan sulfate sulfotransferase activity after the purification: partially purified product
Description: (§1) Activity for various kinds of glycosaminoglycans as the substrate was assayed by using 25 nmol (as galactosamine for chondroitin sulfate (A and C) and dermatan sulfate, and as glucosamine for keratan sulfate and CDSNS-heparin (completely desulfated, N-sulfated heparin, available from Seikagaku Corp.)) of glycosaminoglycan instead of keratan sulfate.
(§2) In the above both cases, the reaction mixtures were incubated at 37° C. for 20 minutes, and the reaction was stopped by immersing reaction tubes into boiling water for one minute.
(§3) After stopping the reaction, 0.1 μmol (as glucuronic acid) of chondroitin sulfate A was added as a carrier, and 3 volumes of ethanol containing 1.3% potassium acetate was added to the reaction mixture to precipitate ^35 S-labeled polysaccharide. The reaction mixture was centrifuged at 10,000×g for 10 minutes, and the resulting precipitates were dissolved in 70 μl of water. The resulting solution (50 μl) was loaded on a desalting column equilibrated with 0.1 M NH4 HCO3, and the eluted fractions containing the ^35 S-labeled polysaccharide were collected. Scintillation cocktail (1 ml, Clearsol, Nakarai Tesque) was added to 200 μl of each of the obtained fractions, and incorporation of ^35 S into the polysaccharide was determined by assaying ^35 S-radioactivity. Activity catalyzing transfer of 1 pmol sulfate group/minute was defined as 1 unit.
Homogenate of COS-7 cells with pCXNKSST introduced from 80 dishes (224 mg as protein) was applied to a DEAE-Sephadex A-50 column (Pharmacia, 2.2×13 cm) equilibrated with Buffer A. The column was washed with 500 ml of Buffer A , and then the adsorbed fraction was eluted with Buffer A containing 0.5 M NaCl.
(§4) The adsorbed fraction was eluted with Buffer A containing 0.5 M NaCl, and the eluate was dialyzed against Buffer A containing 50 mM NaCl. The dialysate was used as KSST not containing CST. […] For the activity assay, 25 nmol (as galactosamine for chondroitin, chondroitin sulfate A, chondroitin sulfate C and dermatan sulfate, and as glucosamine for keratan sulfate and CDSNS-heparin) of glycosaminoglycan was used instead of the keratan sulfate contained in the standard reaction mixture.

[4] = test system: crude extract of COS-7 cells with pCXNKSST introduced; assay: Sulfotransferase activity for various glycosaminoglycan receptors, crude extract (Reaction Mixture II); assay type: biochemical; conditions: 25 nmol glycosaminoglycan as receptor
Description: as §1, §2, §3, §4

[5] = test system: sulfotransferase activity; assay: Sulfotransferase activity of pCXNKSST-transfected COS-7 cells with other sulfate group receptors; assay type: cell-based; conditions: COS-7 cells with KSST cDNA in the correct direction, substance used as sulfate group receptor
Text: This cDNA was introduced into a plasmid (pCXN2) (a recombinant plasmid where the direction of the promoter is conformed with that of the cDNA was designated as pCXNKSST, and recombinant plasmid where the cDNA was inserted in a reversed direction was designated as pCXNKSST2), and COS-7 cells were transfected with the obtained plasmids by the method described above. […] When dermatan sulfate, heparan sulfate, or completely desulfated, N-sulfated heparin (CDSNS-heparin) was used as the sulfate group receptor, no increase of sulfotransferase activity was observed.

[6] = substrate: Nc1ncnc2c1ncn2[C@@H]1O[C@H](COP(=O)(O)OS(=O)(=O)O)[C@@H](OP(=O)(O)O)[C@H]1O; assay: purified protein, by the assay type

O[C@H](CS)[C@H](O)CS (racemic) [Dithiothreitol]
effect on KSST activity ([1]; concentration up to 10 mM): did not affect the KSST activity

[Ba+2].[Cl-].[Cl-] [BaCl2]
Sulfotransferase activity with added salt [1]: 21.0 pmol/minute/mg protein

[Ca+2].[Cl-].[Cl-] [CaCl2]
optimum concentration for KSST activity [1]: about 10 mM
Sulfotransferase activity with added salt [1]: 26.2 pmol/minute/mg protein
effect on KSST activity ([1]; salts at 5 mM): most strongly enhanced the KSST activity

[Cl-].[Cl-].[Co+2] [CoCl2]
Sulfotransferase activity with added salt [1]: 24.6 pmol/minute/mg protein

[Cl][Cu][Cl] [CuCl2]
Sulfotransferase activity with added salt [1]: 10.0 pmol/minute/mg protein

O=S(=O)([O-])[O-].[Fe+2] [FeSO4]
Sulfotransferase activity with added salt [1]: 3.0 pmol/minute/mg protein

[Cl-].[Cl-].[Mg+2] [MgCl2]
Sulfotransferase activity with added salt [1]: 18.8 pmol/minute/mg protein

[Cl][Mn][Cl] [MnCl2]
Sulfotransferase activity with added salt [1]: 28.0 pmol/minute/mg protein
effect on KSST activity ([1]; salts at 5 mM): most strongly enhanced the KSST activity

[Cl][Ni][Cl] [NiCl2]
Sulfotransferase activity with added salt [1]: 10.0 pmol/minute/mg protein

Nc1ncnc2c1ncn2[C@@H]1O[C@H](COP(=O)(O)OS(=O)(=O)O)[C@@H](OP(=O)(O)O)[C@H]1O [PAPS, 3'-phosphoadenosine 5'-phosphosulfate]
Km [2]: ~0.2 µM

[Cl-].[Cl-].[Sr+2] [SrCl2]
Sulfotransferase activity with added salt [1]: 21.6 pmol/minute/mg protein

[Cl-].[Cl-].[Zn+2] [ZnCl2]
Sulfotransferase activity with added salt [1]: 1.5 pmol/minute/mg protein

Chondroitin
Sulfotransferase activity, Partially purified product [3]: 0.03 pmol/minute/mg protein × 10^-2
sulfotransferase activity for this receptor relative to keratan sulfate sulfotransferase activity after the purification [3]: ≤ 2%
Sulfotransferase activity, Crude extract [4]: 0.016 pmol/minute/mg protein × 10^-2

Chondroitin sulfate A
Sulfotransferase activity, Partially purified product [3]: 0.03 pmol/minute/mg protein × 10^-2
Sulfotransferase activity, Crude extract [4]: 0.009 pmol/minute/mg protein × 10^-2

Chondroitin sulfate C
Sulfotransferase activity, Partially purified product [3]: 0.02 pmol/minute/mg protein × 10^-2
Sulfotransferase activity, Crude extract [4]: 0.005 pmol/minute/mg protein × 10^-2

Dermatan sulfate
Sulfotransferase activity, Partially purified product [3]: 0.02 pmol/minute/mg protein × 10^-2
Sulfotransferase activity, Crude extract [4]: 0.005 pmol/minute/mg protein × 10^-2
increase of sulfotransferase activity with this sulfate group receptor [5]: no increase

Keratan sulfate
Sulfotransferase activity, Partially purified product [3]: 2.51 pmol/minute/mg protein × 10^-2
Sulfotransferase activity, Crude extract [4]: 0.168 pmol/minute/mg protein × 10^-2

Protamine Chloride
Sulfotransferase activity with added salt [1]: 8.8 pmol/minute/mg protein

completely desulfated, N-sulfated heparin [CDSNS-heparin]
Sulfotransferase activity, Partially purified product [3]: 0.05 pmol/minute/mg protein × 10^-2
sulfotransferase activity for this receptor relative to keratan sulfate sulfotransferase activity after the purification [3]: ≤ 2%
Sulfotransferase activity, Crude extract [4]: 0.109 pmol/minute/mg protein × 10^-2
increase of sulfotransferase activity with this sulfate group receptor [5]: no increase

heparan sulfate
increase of sulfotransferase activity with this sulfate group receptor [5]: no increase

B1: partially purified KSST (KSGal6ST) (Homo sapiens) (protein)
chain: MQCSWKAVLLLALASIAIQYTAIRTFTAKSFHTCPGLAEAGLAERLCEESPTFAYNLSRKTHILILATTRSGSSFVGQLFNQHLDVFYLFEPLYHVQNTLIPRFTQGKSPADRRVMLGASRDLLRSLYDCDLYFLENYIKPPPVNHTTDRIFRRGASRVLCSRPVCDPPGPADLVLEEGDCVRKCGLLNLTVAAEACRERSHVAIKTVRVPEVNDLRALVEDPRLNLKVIQLVRDPRGILASRSETFRDTYRLWRLWYGTGRKPYNLDVTQLTTVCEDFSNSVSTGLMRPPWLKGKYMLVRYEDLARNPMKKTEEIYGFLGIPLDSHVARWIQNNTRGDPTLGKHKYGTVRNSAATAEKWRFRLSYDIVAFAQNACQQVLAQLGYKIAASEEELKNPSVSLVEERDFRPFS
Km [6]: 0.2 µM
